{"source": "paper PMC11842588", "about": "“A first-in-class selective inhibitor of ERK1/2 and ERK5 overcomes drug resistance with a single-molecule strategy” (Signal Transduction and Targeted Therapy, 2025)", "key": {"[1]": {"assay": "Plasma protein binding rate (ultrafiltration)", "assay_type": "in vitro ADME", "details": "SD rat plasma", "protocol": "Appropriate amount of SD rat plasma was taken and incubated with the specified concentration of compound at 37 °C for a specified time, and unbound compound solution was obtained by ultrafiltration method, and acetonitrile-containing internal standard compound was added to terminate the reaction, and the remaining compound was quantized by LC-MS to calculate the plasma protein binding rate. Calculation formula: Plasma protein binding rate (%) = (Total blood−Ultrafiltrate)/Total blood * 100%."}, "[2]": {"assay": "H&E staining of major organs", "assay_type": "in vivo", "details": "xenograft study, heart, liver, spleen, lung, kidney", "protocol": "All procedures were performed in accordance with the Laboratory Animals Welfare Act, the Guide for the Care and Use of Laboratory Animals and the Guidelines and Policies. The rodent experiment was approved by IACUC (Institutional Animal Care and Use Committee) in the Experimental Animal Ethics Committee of West China Hospital (Approval No. 2021672A). 48 female nude mice (BALB/c-nu, 5 weeks, 15–18 g, purchased from Beijing HFK Bio-Technology Co., LTD) were acclimatized for one week in an SPF-grade animal facility (ventilated, 20–25 °C, 50–60% humidity). […] When the tumor volume reached approximately 100 mm^3 (V = L × W^2/2), the mice were randomly divided into six groups (n = 8 per group): (1) Control group (normal saline); (2) 25 mg/kg SKLB-D18-treated group; (3) 50 mg/kg SKLB-D18-treated group; (4) 50 mg/kg BVD-523-treated group; (5) 50 mg/kg XMD8-92-treated group; (6) BVD-523 (50 mg/kg) and XMD8-92 (50 mg/kg) combined treatment group. Drugs were freshly prepared with 5% DMSO, 10% Solutol HS-15, and 85% normal saline on the day of administration. Intragastric administration occurred once daily at the same time for 16 consecutive days. And the body weight and tumor volume of mice were measured every three days. […]\nFirst, the fixed major organs of nude mice were dehydrated, embedded, and sectioned. […] Staining results and tissue morphology were analyzed under a microscope."}}}
{"smiles": "CN(C)Cc1cccc(Nc2ncc(Cl)c(-c3csc(C(=O)NN4CCOCC4)c3)n2)c1", "note": "[SKLB-D18, 4-(5-chloro-2-((3-((dimethylamino)methyl)phenyl)amino)pyrimidin-4-yl)-N-morpholinothiophene-2-carboxamide]", "values": [{"measurement": "fraction unbound", "setting": "[1]", "value": 0.816}, {"measurement": "toxicity to major organs (H&E staining)", "setting": "[2]", "value": "no significant toxicity"}]}
